The test system of this assay is Plasmodium falciparum. The assay can be described thus: GSK_TCMDC: Inhibition of Plasmodium falciparum 3D7 in whole erythrocytes, using parasite LDH activity as an index of growth. It counts as functional, organism-based. As to conditions: Plasmodium falciparum, 3D7.
The compound `CO/C(=C/C=C/c1cc2cc(Cl)c(Cl)cc2[nH]1)C(=O)NC1CC(C)(C)N(C)C(C)(C)C1` yielded an XC50 of 783 nM. With `COC(=O)CCCCCOc1cc(Cc2cnc(N)nc2N)cc(OC)c1OC`, the XC50 is 179 nM. The result for `CCn1c(C(C)C)cc2c3c(N)nc(N)nc3ccc21` reads 12.4 nM; that for `C=C1C(C(=O)OCC)=CN(CC)c2cc(O[C@H]3CCN(C(=O)OC(C)(C)C)C3)ccc21`, 548 nM; that for `Cc1[nH]c(C)c(-c2ccc(Oc3ccc(Cl)cc3)cc2)c(=O)c1Br`, 592 nM. As for `COCCn1c(C)cc(C(=O)CN2C(=O)NC(C)(c3ccc(C(C)(C)C)cc3)C2=O)c1C` (configuration not stated), the XC50 stood at 475 nM. With `O=C(NCC1CCN(Cc2cccc(C(F)(F)F)c2)C1)c1cc(-c2cccc(C(F)(F)F)c2)cs1` (configuration not stated), the XC50 amounted to 608 nM. Take `FC(F)(F)c1ccc2[nH]ccc(=NN=Cc3ccc(Cl)cc3)c2c1`: the XC50 was 791 nM. The result for `COc1ccc(Cc2cccc(C(C(=O)NCc3cc(Cl)cc(Cl)c3)N3CCN(C)CC3)c2)cc1` (configuration not stated) reads 694 nM. Take `COc1cccc(-c2ccc3c(-c4ccc(F)cc4)cnc(N)c3c2)c1`: the XC50 was 807 nM. `O=C1SC(S)=NC1=CNCCCCCCO` came in with an XC50 of 850 nM. The result for `COc1ccc2c(=NN=Cc3ccccc3F)cc(C)[nH]c2c1` reads 997 nM; that for `O=C(NCc1cccs1)[C@H](Cc1ccccc1)Nc1ccnc(NCC2CCCCC2)n1`, 1050 nM. In the case of `O=C(CSc1nc(-c2ccccc2Cl)ns1)Nc1ccc2c(c1)OCO2`, the XC50 was 988 nM. On to `CN(CCCN(C)c1cc(NC(=O)c2ccc(F)cc2)ccn1)Cc1cccc(O)c1`, for which the XC50 turned out to be 1210 nM. Turning to `N#Cc1ccc(N/C(=N\c2ccccc2Cl)NC2CCN(Cc3ccccc3)CC2)c(O)c1`, the XC50 stood at 300 nM. As to `CC(C)N1CCN(C(=O)c2ccc(CNCCCN3CCN(c4cccc(Cl)c4Cl)CC3)s2)CC1`, the XC50 stood at 716 nM. For `CC1(C)CN2CCCC2c2cc(NC(=O)/C=C/c3ccccc3Cl)ccc21` (configuration not stated), the XC50 was 991 nM. `O=C(c1cccs1)N(Cc1cccc(-c2ccc(CNCCc3ccccc3)cc2)c1)C1CCN(Cc2ccccc2)CC1` yielded an XC50 of 860 nM. Take `CS(=O)(=O)NCCCNCc1cccc(-c2ccc(-c3nc4cc(C(F)(F)F)ccc4[nH]3)cc2)c1`: the XC50 worked out at 996 nM. In turn, `CN1CCN(CCCN(Cc2csc(-c3ccc(CNCc4ccccc4)cc3)n2)C(=O)Nc2cc(Cl)cc(Cl)c2)CC1` gave an XC50 of 700 nM. As for `CCCCNC(=O)[C@H](CC1CCCCC1)NC(=O)c1ccc(O)c(-c2cccc(C(F)(F)F)c2)c1`, the XC50 came to 773 nM.

Compound `CO/C(=C\C=C\c1cc2cc(Cl)c(Cl)cc2[nH]1)C(=O)NCCCN1CCN(c2cccc(OCC(=O)Nc3cccc(C(=O)c4ccccc4)c3)c2)CC1` showed an XC50 of 686 nM. `CC(C)(C)c1cc(C(=O)N2CCC(c3ccccn3)CC2)n(Cc2ccccc2)n1` registered an XC50 of 955 nM. In the case of `CCC(C)C#Cc1c(C)nc(N)nc1N` (configuration not stated), the XC50 came to 262 nM. Compound `COc1cccc(CNc2ncc(-c3ccsc3)c(-c3nccs3)n2)c1` returned an XC50 of 422 nM. Compound `Cc1nc(-c2cccc(C(=O)N(Cc3cncn3Cc3cccc(C(F)(F)F)c3)CC3CC3)c2)cs1` displayed an XC50 of 941 nM. With `COc1cccc(-c2nn(C)c3sc(C(=O)NCCN(C)Cc4ccccc4)cc23)c1`, the XC50 is 814 nM.

In turn, `Cc1ccoc1C(=O)Nc1cccc(-c2cccc(-c3nc4cc(C(F)(F)F)ccc4[nH]3)c2)c1` had an XC50 of 613 nM.

As to `O=C(NCCCCN1CCC(c2ccc3c(c2OCC2CC2)CCCC3)CC1)c1ccc(NC(=O)c2ccc(Cl)cc2)cc1`, the XC50 was 680 nM. In turn, `N#Cc1ccc(Sc2nnc(-c3ccccc3Cl)n2CC2CCCCC2)cc1[N+](=O)[O-]` gave an XC50 of 1160 nM. The result for `COc1cc2nc(N3CCC(CNC(=O)c4cccc5cc[nH]c45)CC3)nc(N)c2cc1OC` reads 1580 nM; that for `COc1ccc(C(=O)Nc2cc(Br)c3c(c2)CNCC3)cc1Br`, 915 nM.

`CN(C)CCN(Cc1ccc(-c2ccc(CNCCc3ccccc3)cc2)nc1)C(=O)CCC1CCCC1` came in with an XC50 of 799 nM.

In turn, `N#Cc1ccc2c(c1)CCN(CCC1CCC(NC(=O)/C=C/c3cccc4cc[nH]c34)CC1)CC2` (configuration not stated) registered an XC50 of 1090 nM. On to `OC(CN(Cc1ccccc1)Cc1ccccc1)Cn1c2ccc(Cl)cc2c2cc(Cl)ccc21` (configuration not stated), for which the XC50 is 995 nM. Compound `CO/C(=C\C=C\c1cc2cc(Cl)c(Cl)cc2[nH]1)C(=O)NCCCN1CCN(c2cccc(CCCO)c2)CC1` gave an XC50 of 1030 nM.

For `FC(F)(F)c1ccc2[nH]c(-c3cccc(-c4ccc(CNCC5CCCO5)cc4)c3)nc2c1` (configuration not stated), the XC50 came to 277 nM.

On to `CCCCCCCN1CCC(NC(=O)Nc2ccnc3ccc(OC)cc23)C(C(=O)OCC)C1` (configuration not stated), for which the XC50 was found to be 426 nM. The compound `N#Cc1ccc(CN2CCC(Oc3ccc(NC(=O)c4ccco4)cc3Cl)CC2)cc1` yielded an XC50 of 379 nM. As for `O=C(/C=C/c1ccccc1F)NC1CCC(CCN2CCc3ccc(-c4cccnc4)cc3CC2)CC1` (configuration not stated), the figure is 900 nM; as for `O=C(/C=C/c1ccc(Cl)c(Cl)c1)NCCCCCCN1CCCN(C(=O)Nc2ccc(C(F)(F)F)cc2)CC1`, 579 nM; as for `O=C(Nc1ccc(Br)cc1)N(CCN1CCOCC1)CC(O)COCc1ccc(Cl)c(Cl)c1` (configuration not stated), 929 nM. `CCCCCN1CCC(NS(=O)(=O)c2cccc(C(=O)Nc3cccc(C(F)(F)F)c3)c2)C1` (configuration not stated) came in with an XC50 of 826 nM. The result for `CC(C)CCNc1nc(NCc2ccccc2)c2cc(O)ccc2n1` reads 105 nM; that for `C=CCOc1ccc2ccccc2c1CNCCCCCCNCc1c(OCC=C)ccc2ccccc12`, 859 nM. The result for `CCOc1cc(Br)c(C(C)NC(=O)c2cccc(OC)c2)cc1OCC` (configuration not stated) reads 168 nM. In turn, `NCc1cccc(-c2ccccc2CNC2CCN(Cc3ccccc3)CC2)c1` displayed an XC50 of 770 nM. The result for `NCCNc1ccc([N+](=O)[O-])cc1C(=O)Nc1cccc(Cl)c1` reads 1260 nM; that for `Fc1ccc(Nc2ccnc3cc(I)ccc23)c(Cl)c1`, 1080 nM. As for `O=C(NNC(=O)c1ccc(CCN2CCC(c3nc(COCC(F)(F)F)c(-c4ccc(F)cc4)o3)CC2)cc1)Nc1ccc(Oc2ccccc2)cc1`, the figure is 708 nM; as for `COc1ccc(CNCc2ccccc2)cc1-c1ccc(S(=O)(=O)NCCN2CCCC2)cc1`, 824 nM; as for `COC(=O)CNC(c1ccccc1)c1cc(Br)ccc1NC(=O)c1ccccc1Br` (configuration not stated), 988 nM. As for `Cc1nc(C)c(-c2ccc(Cl)cc2Cl)c(O)c1Br`, the XC50 is 1010 nM. As to `Clc1ccc(CNc2nc(NCCc3c[nH]cn3)nc(N3CCCC4CCCCC43)n2)cc1` (configuration not stated), the XC50 came out at 591 nM. As for `COc1ccc(Br)cc1/C=C/C(=O)Nc1cccc(C2CCN(C)CC2)c1`, the XC50 is 523 nM. `O=C(Nc1cccc(-c2ccc(-c3nc4cc(C(F)(F)F)ccc4[nH]3)cc2)c1)c1c[nH]cn1` showed an XC50 of 966 nM. As for `OC(CNCc1ccccc1)c1cc(OCc2ccccc2)cc(OCc2ccccc2)c1` (configuration not stated), the XC50 came out at 1000 nM.

As to `COc1ccc(NC(=O)c2ccc(C=Cc3ccc(C(F)(F)F)cc3)cc2)cc1N1CCN(C)CC1`, the XC50 was found to be 421 nM. In the case of `CC(C)CCn1c(Sc2ccc([N+](=O)[O-])cc2C(F)(F)F)nnc1-c1ccccc1Cl`, the XC50 was 919 nM. As to `CNC(=O)c1c(NC(=O)c2cccs2)sc2c1CCCC2`, the XC50 amounted to 818 nM. `COc1ccccc1C(=O)Nc1cccc(N2CCC(NCc3ccc(-n4cccn4)cc3)CC2)c1` returned an XC50 of 1190 nM. In turn, `COc1ccc2c(=NN=Cc3cccnc3)cc(C)[nH]c2c1` had an XC50 of 993 nM. The result for `Cc1cc(NC(=O)NCCN2CCC(NS(=O)(=O)c3ccc(C(F)(F)F)cc3)C2)c2ccccc2n1` (configuration not stated) reads 645 nM. In the case of `COc1ccc(-c2nc(NC(=O)Cc3cccc(OC)c3)sc2C)cc1`, the XC50 was found to be 237 nM.

Compound `O=C(Nc1cccc(-c2nn3ncccc3c2-c2ccnc(Nc3ccccc3)n2)c1)c1c(F)cccc1F` returned an XC50 of 726 nM. Regarding `COc1ccc(O)c(C(=O)c2cc(C(=O)NC3CCCCC3)c(=O)n(C3CCCCC3)c2)c1`, the XC50 was determined as 664 nM. Compound `CCc1ccc(NC(=O)N(CCCN2CCN(C)CC2)Cc2csc(-c3ccc(CNCc4ccccc4)cc3)n2)cc1` had an XC50 of 1010 nM. As for `CC(C)(C)c1ccc(NC(=O)c2ccc(CN3CCCN(Cc4cccc(Cl)c4)CC3)cc2)cc1`, the figure is 972 nM. For `COc1cc(F)c2ncc(Cl)c(CCN3CCC(NCc4ccc5c(n4)NC(=O)CS5)CC3)c2c1`, the XC50 stood at 482 nM. The result for `O=C(C=Cc1ccc(Cl)c(Cl)c1)NCCCCCN1CCC(CCCNS(=O)(=O)c2cccc(C(F)(F)F)c2)CC1` reads 477 nM; that for `C(=N\Nc1nccc2sc(-c3cccnc3)cc12)/c1ccncc1`, 213 nM. As for `O=C(Nc1cc(C(F)(F)F)cc(C(F)(F)F)c1)c1cccc([N+](=O)[O-])c1`, the figure is 895 nM; as for `O=C(Nc1ccc(OC2CCN(Cc3ccc(F)cc3)CC2)c(Cl)c1)c1ccoc1`, 1180 nM. Regarding `Fc1ccc(Nc2ccnc3cc(-c4cccc(CNCCN5CCOCC5)c4)ccc23)c(Cl)c1`, the XC50 came to 142 nM.

For `Cn1cnc(CCNC(=O)c2cccc(-c3csc(-c4nc5ccccc5[nH]4)c3)c2)c1`, the XC50 turned out to be 599 nM. With `Oc1ccc(CCCNc2nc(NCc3cccc4ccccc34)nc(N3CCCNCC3)n2)cc1`, the XC50 worked out at 987 nM. In turn, `Cc1ccc(-c2noc(COc3ccccc3C(=O)NC3CCCC3)n2)cc1` yielded an XC50 of 882 nM. As to `O=C(Nc1cccc(-c2ccc(-c3nc4ccccc4[nH]3)cc2)c1)c1cccnc1`, the XC50 was determined as 1040 nM.

In the case of `CCN(CCCNc1nc(=S)[nH]c2cc(OC)c(OC)cc12)c1ccccc1`, the XC50 was found to be 721 nM. `Cc1ccc(Sc2ccc(NC(=O)CN3CCN(C(=O)c4ccco4)CC3)cc2)cc1C`: the XC50 amounted to 911 nM. `Cc1nc(-c2nc(NCCc3c(C)noc3C)ncc2-c2ccsc2)sc1C` registered an XC50 of 256 nM.

Compound `CN(C)CCNC(=O)c1ccc(-c2cnc3ccc(NCc4ccc(Cl)c(Cl)c4)nn23)cc1` gave an XC50 of 913 nM. As for `CCCNC(=O)Nc1cc2cc(-c3cccc(CN4CCCCC4)c3)ccc2n2c(C)nnc12`, the figure is 1110 nM; as for `O=C(Nc1nc(-c2ccccn2)cs1)c1ccc(S(=O)(=O)N2CCc3ccccc32)cc1`, 830 nM. The result for `O=C(NCCCCN1CCC2c3cccc(O)c3CCC21)c1ccc(-c2ccccc2)cc1` (configuration not stated) reads 1380 nM; that for `O=S(=O)(NCCN1CCCC1)c1ccc(-c2cccc(CNCCc3cccs3)c2)cc1`, 928 nM.

Values taken from ChEMBL document CHEMBL1157539, “Thousands of chemical starting points for antimalarial lead identification” (Nature, 2010).
